Reference: patent US8901138B2, “Sulfoximine substituted quinazolines for pharmaceutical compositions” (Boehringer Ingelheim International GmbH, priority 2012, dated 2014)

What follows are compounds tested against T1, MNK2a (Homo sapiens, UniProt Q9HBH9) (assay: MNK2a in vitro kinase assay (assay 1), ADP-Glo). Conditions: preactivated GST-MNK2a, 20 μM ATP, read-out: MNK2 IC50.
T1 construct: made in house
Type: biochemical
Experimental: A. MNK2a In Vitro Kinase Assay (Assay 1)
ASSAY SETUP: The inhibition of kinase activity of MNK2a was assessed using preactivated GST-MNK2a. The white, 384-well OptiPlate F plates were purchased from Perkin Elmer. The ADP-Glo Kinase Assay (including ultra pure ATP) was purchased from Promega (V9103). Activated MNK2a was obtained as described in WO2011/104340. The unlabeled eIF4E peptide (NH2-[…]—CONH2) (SEQ ID NO: 1), differing from Seq. ID No. 5 of WO 2011/104340 by the C-terminal —CONH2 group, was purchased from Thermo Fisher Scientific. All other materials were of highest grade commercially available. Compounds are tested in either serial dilutions or single dose concentrations. The compound stock solutions are 10 mM in 100% DMSO The serial compound dilutions are prepared in 100% DMSO followed by 1:27.3 intermediate dilution in assay buffer. The final DMSO concentration in assay will be <3%. In the 384-well plates 3 μl of test compound from the intermediate dilution is mixed with 4 μl of the activated MNK2 enzyme (final concentration of 10 nM) and 4 μl of the peptide (final concentration of 25 μM)/ultra pure ATP (final concentration of 20 μM), all dissolved in assay buffer. This step is followed by an incubation time of 90 min, then 10 μl of ADP Glo reagent are added, followed by 40 min of incubation. Then 20 μl of kinase detection reagent are admixed. The plates are sealed and after an incubation period of 30 min, the luminescence signal is measured in an Envision reader to determine the amount of produced ADP. All incubation steps are performed at room temperature. The assay buffer consists of 20 mM HEPES, 2 mM DTT, 0.01% BSA, 20 mM MgCl2 and 0.1% Pluronic F-127.
Each assay microtiter plate contains wells with vehicle controls instead of compound (1% DMSO in water) as reference for the high signal (100% CTL, high signal), and wells containing a potent MNK2 inhibitor (final 20 μM, 1% DMSO) as reference for low signal (0% CTL, low signal).
The luminescent signal generated is proportional to the ADP concentration produced and is correlated with activated MNK2 activity. The analysis of the data is performed by the calculation of the percentage of ATP consumption of activated MNK2 in the presence of the test compound compared to the consumption of ATP in the presence of activated MNK2 without compound. (RLU(sample)−RLU(low control))*100/(RLU(high value)−RLU(low control)) [RLU=relative luminescence units]
An inhibitor of the MNK2 enzyme will give values between 100% CTL (no inhibition) and 0% CTL (complete inhibition). Values of more than 100% CTL are normally related to compound/sample specific physico-chemical properties (e.g. solubility, light absorbance, fluorescence).
IC50 values based on dose response curves are calculated with the AssayExplorer software.

T1 sequence (Q9HBH9 whole entry): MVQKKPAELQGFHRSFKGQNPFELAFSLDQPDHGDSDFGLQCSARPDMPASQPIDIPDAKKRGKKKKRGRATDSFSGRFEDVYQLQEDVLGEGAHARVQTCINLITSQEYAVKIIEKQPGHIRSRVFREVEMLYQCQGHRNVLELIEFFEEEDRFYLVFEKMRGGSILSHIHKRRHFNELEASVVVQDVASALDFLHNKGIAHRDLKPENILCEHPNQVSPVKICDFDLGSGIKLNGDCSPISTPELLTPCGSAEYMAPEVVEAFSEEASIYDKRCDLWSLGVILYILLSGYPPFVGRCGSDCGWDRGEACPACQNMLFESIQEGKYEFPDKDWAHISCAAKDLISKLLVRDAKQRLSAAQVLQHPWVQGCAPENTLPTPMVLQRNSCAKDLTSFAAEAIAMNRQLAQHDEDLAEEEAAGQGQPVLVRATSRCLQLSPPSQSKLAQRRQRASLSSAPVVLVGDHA

IC50 | Structure (SMILES)
3 nM | CO[C@H]1CC[C@H](Oc2cc(F)ccc2Nc2ncnc3cc(N=S(C)(C)=O)cc(C)c23)CC1 [Example 2.75]
4 nM | Cc1cc(N=S(C)(C)=O)cc2ncnc(Nc3ccc(F)cc3O[C@H]3CC[C@H](C#N)CC3)c12 [Example 4.4]
5 nM | CO[C@H]1CC[C@H](Oc2cc(F)ccc2Nc2ncnc3cc(N=S4(=O)CCN(C)CC4)cc(C)c23)CC1 [Example 7.1]
1 nM | Cc1cc(N=S(C)(C)=O)cc2ncnc(Nc3ccc(F)cc3O[C@@H]3CO[C@H]4[C@@H]3OC[C@@H]4O)c12 [Example 1.1]
5 nM | Cc1cc(N=S(C)(C)=O)cc2ncnc(Nc3ccc(C#N)cc3O[C@H]3CC[C@H](O)CC3)c12 [Example 2.65]
4 nM | CO[C@H]1CC[C@H](Oc2ncccc2Nc2ncnc3cc(N=S(C)(C)=O)cc(F)c23)CC1 [Example 2.49]
3 nM | Cc1cc(N=[S@@](C)(=O)c2ccccc2)cc2ncnc(Nc3ccc(F)cc3O[C@H]3CCOC3)c12 [Example 2.64]
3 nM | CS(C)(=O)=Nc1cc(C2CC2)c2c(Nc3ccc(F)cc3O[C@H]3CCOC3)ncnc2c1 [Example 1.15]
3 nM | Cc1cc(N=S(C)(C)=O)cc2ncnc(Nc3ccc(F)nc3O[C@H]3CCOC3)c12 [Example 1.40]
2 nM | Cc1cc(N=S2(=O)CCCC2)cc2ncnc(Nc3ccc(F)cc3O[C@H]3CC[C@H](O)CC3)c12 [Example 2.40]
164 nM | CC(C)(C)OC(=O)N1CCC[C@@H](Oc2ncccc2Nc2ncnc3cc(N=S(C)(C)=O)cc(F)c23)C1 [Example 2.77]
12 nM | CS(C)(=O)=Nc1cc(F)c2c(Nc3ccc(F)cc3O[C@@H]3CCCN(Cc4ncon4)C3)ncnc2c1 [Example 6.12]
1 nM | Cc1cc(N=S2(=O)CCCC2)cc2ncnc(Nc3ccc(F)cc3O[C@@H]3CO[C@H]4[C@@H]3OC[C@@H]4F)c12 [Example 2.117]
4 nM | Cc1cc(N=S(C)(=O)c2cccnc2)cc2ncnc(Nc3ccc(F)cc3O[C@@H]3CO[C@@H]4CCO[C@@H]43)c12 (stereo partly shown) [Example 2.95]
4 nM | CS(C)(=O)=Nc1cc(F)c2c(Nc3ccc(F)cc3O[C@@H]3CCCN(CC(F)(F)F)C3)ncnc2c1 [Example 6.13]
7 nM | Cc1cc(N=S(C)(C)=O)cc2ncnc(Nc3ccc(F)cc3O[C@@H]3CO[C@H]4[C@@H]3OC[C@H]4C#N)c12 [Example 2.30]
4 nM | Cc1cc(N=S(C)(=O)C(C)C)cc2ncnc(Nc3ccc(F)cc3O[C@H]3CCOC3)c12 (stereo partly shown) [Example 2.104]
1 nM | Cc1cc(N=S2(=O)CCC2)cc2ncnc(Nc3ccc(F)cc3O[C@@H]3CO[C@@H]4CCO[C@@H]43)c12 [Example 2.106]
2 nM | O=S1(=Nc2cc(Cl)c3c(Nc4ccc(F)cc4O[C@H]4CCOC4)ncnc3c2)CCC1 [Example 1.26]

Each compound was assayed against MNK1a (Homo sapiens, UniProt Q9BUB5) (assay: MNK1 in vitro kinase assay (assay 2), Z'-LYTE). Conditions: compound concentration of 1 μM.
Type: biochemical
Description: B. MNK1 In Vitro Kinase Assay (Assay 2)
MNK1 Data can be obtained from the MNK1 Z′-LYTE® assay. The MNK1 Z′-LYTE® screening protocol and assay conditions are also described on www.invitrogen.com.
The assay is described as follows:
The Z′-LYTE® biochemical assay employs a fluorescence-based, coupled-enzyme format and is based on the differential sensitivity of phosphorylated and non-phosphorylated peptides to proteolytic cleavage. The peptide substrate is labeled with two fluorophores—one at each end—that make up a FRET pair.
In the primary reaction, the kinase transfers the gamma-phosphate of ATP to a single tyrosine, serine or threonine residue in a synthetic FRET-peptide. In the secondary reaction, a site-specific protease recognizes and cleaves non-phosphorylated FRET-peptides. Phosphorylation of FRET-peptides suppresses cleavage by the Development Reagent. Cleavage disrupts FRET between the donor (i.e., coumarin) and acceptor (i.e., fluorescein) fluorophores on the FRET-peptide, whereas uncleaved, phosphorylated FRET-peptides maintain FRET. A ratiometric method, which calculates the ratio (the Emission Ratio) of donor emission to acceptor emission after excitation of the donor fluorophore at 400 nm, is used to quantitate reaction progress, as shown in the equation below. Emission Ratio=Coumarin Emission(445 nm)/Fluorescein Emission(520 nm)
ASSAY SETUP: The inhibition of kinase activity of MNK1a was assessed using pre-activated GST-MNK1a. The 2×MKNK1 (MNK1) mixture is prepared in 50 mM HEPES pH 7.5, 0.01% BRIJ-35, 10 mM MgCl2, 4 mM MnCl2, 1 mM EGTA, 2 mM DTT. The final 10 μL Kinase Reaction consists of 13.5-54 ng MKNK1 (MNK1) and 2 μM Ser/Thr 07 in 50 mM HEPES pH 7.5, 0.01% BRIJ-35, 10 mM MgCl2, 2 mM MnCl2, 1 mM EGTA, 1 mM DTT. After the 1 hour Kinase Reaction incubation, 5 μL of a 1:32768 dilution of Development Reagent A is added.
The Test Compounds are screened in 1% DMSO (final) in the well.
All Peptide/Kinase Mixtures are diluted to a 2× working concentration in the MNK1 Kinase Buffer.
All ATP Solutions are diluted to a 4× working concentration in Kinase Buffer (50 mM HEPES pH 7.5, 0.01% BRIJ-35, 10 mM MgCl2, 1 mM EGTA).
Development Reagent Solution:
The Development Reagent is diluted in Development Buffer
Bar-coded Corning, low volume NBS, 384-well plate (Corning Cat. #3676)
1. 2.5 μL-4× Test Compound
2. 5 μL-2× Peptide/Kinase Mixture
5. 60-minute Kinase Reaction incubation at room temperature
6. 5 μL-Development Reagent Solution
8. 60-minute Development Reaction incubation at room temperature
9. Read on fluorescence plate reader and analyze the data
The following equations are used for each set of data points: […]
Correction for Background Fluorescence: FSample−FITCFl Ctl
Emission Ratio (using values corrected for background fluorescence):Coumarin
Emission (445 nm)/Fluorescein Emission (520 nm)
% Phosphorylation (% Phos): 1−((Emission Ratio×F100%)−C100%)/((C0%−C100%)+[Emission Ratio×(F100%−F0%)])*100 % Inhibition: 1−(% PhosSample/% Phos0% Inhibition Ctl)*100 FI=Fluorescence Intensity C100%=Average Coumarin emission signal of the 100% Phos. Control C0%=Average Coumarin emission signal of the 0% Phos. Control F100%=Average Fluorescein emission signal of the 100% Phos. Control F0%=Average Fluorescein emission signal of the 0% Phos. Control Graphing Software
SelectScreen® Kinase Profiling Service uses XLfit from IDBS. The dose response curve is curve fit to model number 205 (sigmoidal dose-response model).

Sequence of MNK1a (Q9BUB5 1-424 isoform Q9BUB5-2): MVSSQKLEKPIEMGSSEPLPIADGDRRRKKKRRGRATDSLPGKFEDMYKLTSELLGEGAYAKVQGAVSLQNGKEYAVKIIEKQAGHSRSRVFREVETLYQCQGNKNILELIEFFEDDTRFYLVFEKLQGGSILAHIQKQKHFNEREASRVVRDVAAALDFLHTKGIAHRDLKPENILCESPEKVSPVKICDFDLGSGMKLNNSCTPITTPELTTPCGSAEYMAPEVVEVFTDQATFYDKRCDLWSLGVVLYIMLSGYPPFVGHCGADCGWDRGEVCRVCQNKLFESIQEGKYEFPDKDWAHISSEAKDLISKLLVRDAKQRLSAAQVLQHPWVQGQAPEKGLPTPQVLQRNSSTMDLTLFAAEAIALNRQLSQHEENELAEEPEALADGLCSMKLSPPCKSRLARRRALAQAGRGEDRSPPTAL

inhibition at 1 µM | Structure (SMILES)
100% | CO[C@H]1CC[C@H](Oc2cc(F)ccc2Nc2ncnc3cc(N=S(C)(C)=O)cc(C)c23)CC1 [Example 2.75]
92% | Cc1cc(N=S(C)(C)=O)cc2ncnc(Nc3ccc(F)cc3O[C@H]3CC[C@H](C#N)CC3)c12 [Example 4.4]
86% | CO[C@H]1CC[C@H](Oc2cc(F)ccc2Nc2ncnc3cc(N=S4(=O)CCN(C)CC4)cc(C)c23)CC1 [Example 7.1]
98% | Cc1cc(N=S(C)(C)=O)cc2ncnc(Nc3ccc(F)cc3O[C@@H]3CO[C@H]4[C@@H]3OC[C@@H]4O)c12 [Example 1.1]
98% | Cc1cc(N=S(C)(C)=O)cc2ncnc(Nc3ccc(C#N)cc3O[C@H]3CC[C@H](O)CC3)c12 [Example 2.65]
86% | CO[C@H]1CC[C@H](Oc2ncccc2Nc2ncnc3cc(N=S(C)(C)=O)cc(F)c23)CC1 [Example 2.49]
87% | Cc1cc(N=[S@@](C)(=O)c2ccccc2)cc2ncnc(Nc3ccc(F)cc3O[C@H]3CCOC3)c12 [Example 2.64]
95% | CS(C)(=O)=Nc1cc(C2CC2)c2c(Nc3ccc(F)cc3O[C@H]3CCOC3)ncnc2c1 [Example 1.15]
94% | Cc1cc(N=S(C)(C)=O)cc2ncnc(Nc3ccc(F)nc3O[C@H]3CCOC3)c12 [Example 1.40]
100% | Cc1cc(N=S2(=O)CCCC2)cc2ncnc(Nc3ccc(F)cc3O[C@H]3CC[C@H](O)CC3)c12 [Example 2.40]
55% | CC(C)(C)OC(=O)N1CCC[C@@H](Oc2ncccc2Nc2ncnc3cc(N=S(C)(C)=O)cc(F)c23)C1 [Example 2.77]
91% | CS(C)(=O)=Nc1cc(F)c2c(Nc3ccc(F)cc3O[C@@H]3CCCN(Cc4ncon4)C3)ncnc2c1 [Example 6.12]
101% | Cc1cc(N=S2(=O)CCCC2)cc2ncnc(Nc3ccc(F)cc3O[C@@H]3CO[C@H]4[C@@H]3OC[C@@H]4F)c12 [Example 2.117]
80% | CS(C)(=O)=Nc1cc(F)c2c(Nc3ccc(F)cc3O[C@@H]3CCCN(CC(F)(F)F)C3)ncnc2c1 [Example 6.13]
88% | Cc1cc(N=S(C)(C)=O)cc2ncnc(Nc3ccc(F)cc3O[C@@H]3CO[C@H]4[C@@H]3OC[C@H]4C#N)c12 [Example 2.30]
95% | Cc1cc(N=S(C)(=O)C(C)C)cc2ncnc(Nc3ccc(F)cc3O[C@H]3CCOC3)c12 (stereo partly shown) [Example 2.104]
98% | Cc1cc(N=S2(=O)CCC2)cc2ncnc(Nc3ccc(F)cc3O[C@@H]3CO[C@@H]4CCO[C@@H]43)c12 [Example 2.106]
100% | O=S1(=Nc2cc(Cl)c3c(Nc4ccc(F)cc4O[C@H]4CCOC4)ncnc3c2)CCC1 [Example 1.26]

Same assay, conditions: pre-activated GST-MNK1a

IC50 | Structure (SMILES)
75 nM | CO[C@H]1CC[C@H](Oc2cc(F)ccc2Nc2ncnc3cc(N=S(C)(C)=O)cc(C)c23)CC1 [Example 2.75]
56 nM | Cc1cc(N=S2(=O)CCCC2)cc2ncnc(Nc3ccc(F)cc3O[C@H]3CC[C@H](O)CC3)c12 [Example 2.40]
33 nM | Cc1cc(N=S(C)(=O)c2cccnc2)cc2ncnc(Nc3ccc(F)cc3O[C@@H]3CO[C@@H]4CCO[C@@H]43)c12 (stereo partly shown) [Example 2.95]
